The record followed here is patent US6359144B1, “Combinatorial libraries of bicyclic guanidine derivatives and compounds therein” (Lion Bioscience AG, priority 1997, dated 2002).

pIC50: −log10 of the molar value. Where two headings read alike, the source gives them in different places.

As usually defined, the pIC50 is −log10 of the IC50, conventionally taken in molar units.

The target of one assay is T1, σ receptor (Rattus norvegicus, UniProt Q9R0C9).
T1 construct: can be performed with particulate membranes prepared using a modification of the method described in Pasternak et al; tissue Rockland (Gilbertsville, Pa.); host or cells: rat brain minus cerebellum, crude particulate membranes
As to the kind of experiment: σ receptor radio-receptor binding assay. From the text:
Additionally, such compounds can be tested in a σ receptor assay. Ligands for the σ receptor can be useful as antipsychotic agents, as described in Abou-Gharbia et al., Annual Reports in Medicinal Chemistry, 28:1-10 (1993).
Radio-receptor assays, such as those whose results are shown in Examples IV, V and VI, below, can be performed with particulate membranes prepared using a modification of the method described in Pasternak et al., Mol. Pharmacol. 11:340-351 (1975), which is incorporated herein by reference. Rat brains frozen in liquid nitrogen can be obtained from Rockland (Gilbertsville, Pa.). The brains are thawed, the cerebella removed and the remaining tissue weighed. Each brain is individually homogenized in 40 ml Tris-HCl buffer (50 mM, pH 7.4, 4° C.) and centrifuged (Sorvall® RC5C SA-600: Du Pont, Wilmington, Del.) (16,000 rpm) for 10 minutes. The pellets are resuspended in fresh Tris-HCl buffer and incubated at 37° C. for 40 minutes. Following incubation, the suspensions are centrifuged as before, the resulting pellets resuspended in 100 volumes of Tris buffer and the suspensions combined. Membrane suspensions are prepared and used in the same day.
Binding assays are carried out in polypropylene tubes, each tube containing 0.5 ml of membrane suspension. 8 nM of ^3H-[D-Ala^2,Me-Phe^4,Gly-ol^5]enkephalin (DAMGO) (specific activity=36 Ci/mmol, 160,000 cpm per tube; which can be obtained from Multiple Peptide Systems, San Diego, Calif., through NIDA drug distribution program 271-90-7302) and 80 μg/ml of bicyclic guanidine, individual or as a mixture and Tris-HCl buffer in a total volume of 0.65 ml. Assay tubes are incubated for 60 mins. at 25° C. The reaction is terminated by filtration through GF-B filters on a Tomtec harvester (Orange, Conn.). The filters are subsequently washed with 6 ml of Tris-HCl buffer, 4° C. Bound radioactivity is counted on a Pharmacia Biotech Betaplate Liquid Scintillation Counter (Piscataway, N.J.) and expressed in cpm. To determine inter- and intra-assay variation, standard curves in which ^3H-DAMGO is incubated in the presence of a range of concentrations of unlabeled DAMGO (0.13-3900 nM) are generally included in each plate of each assay (a 96-well format). Competitive inhibition assays are performed as above using serial dilutions of the bicyclic guanidines, individually or in mixtures.
As opposed to this μ receptor selective assay, which can be carried out using ^3H-DAMGO as radioligand, as described above, assays selective for κ receptors can be carried out using [^3H]-U69,593 (3 nM, specific activity 62 Ci/mmol) as radioligand. Assays selective for δ opiate receptors can be carried out using tritiated DSLET ([D-Ser^2, D-Leu^5]-threonine-enkephalin) as radioligand. Assays selective for the σ opiate receptor can use radiolabeled pentazocine as ligand.

The next assay concerns the target T2, κ-opioid receptor (Rattus norvegicus, UniProt P34975).
T2 construct: can be performed with particulate membranes prepared using a modification of the method described in Pasternak et al; tissue Rockland (Gilbertsville, Pa.); host or cells: rat brain minus cerebellum, crude particulate membranes
As to the kind of experiment: κ-opioid receptor radio-receptor binding assay ([3H]-U69,593). The conditions noted are these: Table 9.

For another assay, the target named is T3, calmodulin (Homo sapiens, UniProt P0DP23).
T3 construct: purchased Boehringer Mannheim (calmodulin); Sigma (PDE, 5'-nucleotidase)
Nature of the assay: Calmodulin-dependent phosphodiesterase (CaMPDE) assay. Conditions: 53 individual compounds, Table 17. It is filed as biochemical. As for the experimental part: An example of an assay that identifies CaM antagonists is a CaMPDE assay, such as the one whose results are shown in Examples IX to XII, below. Samples are mixed with 50 μl of assay buffer (360 mM Tris, 360 mM Imidazole, 45 mM Mg(CH3COO)2, pH 7.5) and 10 μl of CaCl2 (4.5 mM) to a final volume of 251 μl. 25 μl of calmodulin stock solution (Boehringer Mannheim; 0.01 μg/μl) is then added and the samples then sit at room temperature for 10 minutes. 14 μl of PDE (Sigma; 2 Units dissolved in 4 ml of water; stock concentration: 0.0005 Units/μl) is then added, followed by 50 μl of 5′-nucleotidase (Sigma; 100 Units dissolved in 10 ml of 10 mM Tris-HCl containing 0.5 mM Mg(CH3COO)2, pH 7.0; stock concentration: 10 Units/ml). The samples are then incubated for 10 minutes at 30° C. 50 μl of adenosine 3′,5′-cyclic monophosphate (cAMP) (20 mM in water at pH 7.0) is added, the samples incubated for 1 hour at 30° C. and then vortexed. 200 μl of trichloroacetic acid (TCA) (55% in water) is added to a 200 μl sample aliquot, which is then vortexed and centrifuged for 10 minutes. 80 μl of the resulting supernatants of each sample is transferred to a 96-well plate, with 2 wells each containing 80 μl of each sample. 80 μl of ammonium molybdate (1.1% in 1.1N H2SO4) is then added to all the wells, and the OD of each were determined at 730 nm, with the values later subtracted to the final OD reading. 16 μl of reducing agent (6 g sodium bisulfite, 0.6 g sodium sulfite and 125 mg of 1-amino-2-naphtol-4-sulfonic acid in 50 ml of water) is then added to one of each sample duplicate and 16 μl of water is added to the other duplicate. After sitting for 1 hour at room temperature, the OD of each well is determined at 730 nm. […]

Where [1] appears, read: 17 additional individual compounds, Table 11.
The mark [2] stands for this setting: 24 individual compounds, Table 10.
Where [3] appears, read: 24 individual compounds, read-out: IC50.

T1 sequence (Q9R0C9 whole entry): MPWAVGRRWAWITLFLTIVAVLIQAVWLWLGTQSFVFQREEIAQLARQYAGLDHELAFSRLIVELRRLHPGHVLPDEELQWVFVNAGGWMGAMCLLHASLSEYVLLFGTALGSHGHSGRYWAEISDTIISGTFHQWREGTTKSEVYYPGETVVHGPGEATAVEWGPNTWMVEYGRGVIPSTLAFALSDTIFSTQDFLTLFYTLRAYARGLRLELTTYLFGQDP
T2 sequence (P34975 whole entry): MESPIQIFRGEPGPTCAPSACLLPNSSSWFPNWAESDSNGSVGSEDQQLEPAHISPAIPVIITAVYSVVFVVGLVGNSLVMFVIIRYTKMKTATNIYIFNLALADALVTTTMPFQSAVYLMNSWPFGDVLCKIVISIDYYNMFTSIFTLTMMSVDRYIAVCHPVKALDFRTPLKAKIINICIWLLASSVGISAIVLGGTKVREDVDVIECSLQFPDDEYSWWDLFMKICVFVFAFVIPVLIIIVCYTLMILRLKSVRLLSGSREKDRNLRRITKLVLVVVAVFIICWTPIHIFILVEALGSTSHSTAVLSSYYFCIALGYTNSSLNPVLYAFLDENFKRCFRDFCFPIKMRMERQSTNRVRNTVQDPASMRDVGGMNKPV

`CCN1C2=NC[C@H](Cc3ccccc3)N2C[C@H]1Cc1ccc(Cl)cc1` [Phe/pCl-phe/acetic acid] gave a pIC50 at σ receptor (setting [1]) of 6.90.
Take `CC(C)C[C@@H]1CN2C(=NC[C@@H]2C)N1CCCC1CCCCC1` [compound 7]: the results for the pIC50 at σ receptor (setting [2]) and on κ-opioid receptor (setting [3]) were 6.28 and 5.26, respectively.
Regarding `CC(C)C[C@@H]1CN2C(=NC[C@@H]2C2CCCCC2)N1CCCC1CCCCC1` [compound 9], the values for the pIC50 on σ receptor (setting [2]) and on κ-opioid receptor (setting [3]) were 7.89 and 5.43, respectively.
`CCCC[C@H]1CN=C2N(CC)[C@@H](Cc3ccccc3)CN21` [Nle/Phe/acetic acid] showed a pIC50 at σ receptor (setting [1]) of 6.67.
For the compound `COc1ccc(CC2CN3C(=NCC3C3CCCCC3)N2CCC23CC4CC(CC(C4)C2)C3)cc1` (stereo not shown) [compound 15], the pIC50 was 6.59 at σ receptor (setting [2]) and 5.31 at κ-opioid receptor (IC50, 24 individual compounds).
`CCN1C2=NC[C@H](Cc3ccccc3)N2C[C@@H]1Cc1ccc(F)cc1` [Phe/pF-Phe/acetic acid] gave a pIC50 at σ receptor (setting [1]) of 6.67.
With `CC(C)CC1CN2C(=NCC2C)N1CCC12CC3CC(CC(C3)C1)C2` (stereo not shown) [compound 19], the pIC50 is 6.01 at σ receptor (setting [2]) and 5.44 at κ-opioid receptor (IC50, 24 individual compounds).
Compound `CCN1C2=NCC(Cc3ccccc3)N2CC1CC1CCCCC1` (stereo not shown) [Phe/Cha/acetic acid] showed a pIC50 at σ receptor (setting [1]) of 7.28.
`C1CCC(CCCN2C3=NC[C@H](C4CCCCC4)N3C[C@@H]2C2CCCCC2)CC1` [compound 12]: at σ receptor (setting [2]), the pIC50 is 6.68.
On σ receptor (setting [1]), `CCN1C2=NC[C@H](Cc3ccccc3)N2C[C@@H]1Cc1ccc(OC)cc1` [Phe/Tyr(Me)/acetic acid] had a pIC50 of 7.16.
For `COc1ccc(CC2CN3C(=NCC3C)N2CCC23CC4CC(CC(C4)C2)C3)cc1` (stereo not shown) [compound 13], the pIC50 is 6.63 on σ receptor (setting [2]) and 5.82 on κ-opioid receptor (IC50, 24 individual compounds).
Compound `COc1ccc(C[C@H]2CN3C(=NC[C@@H]3C3CCCCC3)N2CCCC2CCCCC2)cc1` [compound 3] showed a pIC50 on σ receptor (setting [2]) of 7.64.
On σ receptor (setting [1]), `CC(C)(C)CCN1C2=NC[C@H](Cc3ccccc3)N2C[C@@H]1Cc1ccccc1` [Phe/Phe/(tert-butyl)acetic acid] showed a pIC50 of 6.95.
Regarding `CC(C)CC1CN2C(=NCC2C2CCCCC2)N1CCC12CC3CC(CC(C3)C1)C2` (stereo not shown) [compound 21], the pIC50 was 6.91 on σ receptor (setting [2]) and 5.92 at κ-opioid receptor (IC50, 24 individual compounds).
`CC(C)CCN1C2=NC[C@H](Cc3ccccc3)N2C[C@@H]1Cc1ccccc1` [Phe/Phe/isovaleric acid] showed a pIC50 at σ receptor (setting [1]) of 6.81.
Same read-out and setting: in the case of `CCN1C2=NC[C@H](Cc3ccccc3)N2C[C@@H]1Cc1ccc(I)cc1` [Phe/pI-Phe/acetic acid] it was 7.19.
Take `COc1ccc(CC2CN3C(=NCC3C)N2CCC23CC4CC(CC(C4)C2)C3)cc1` (stereo not shown) [compound 16]: the pIC50 on σ receptor (setting [2]) was 5.97; on κ-opioid receptor (IC50, 24 individual compounds) it was 6.62.
For `COc1ccc(C[C@H]2CN3C(=NC[C@H]3C3CCCCC3)N2CCCC2CCCCC2)cc1` [compound 2], the pIC50 on σ receptor (setting [2]) is 6.23.
Still for that read-out and setting: in the case of `COc1ccc(C[C@H]2CN3C(=NC[C@@H]3C)N2CCCC2CCCCC2)cc1` [compound 4] it was 7.28.
With `CCN1C2=NCC(Cc3ccccc3)N2CC1Cc1ccc(Cl)cc1` (stereo not shown) [Phe/pCl-Phe/acetic acid], the pIC50 at σ receptor (setting [1]) was 7.22.
Still for that read-out and setting: in the case of `CCN1C2=NC[C@H](Cc3ccccc3)N2C[C@H]1Cc1ccc(F)cc1` [Phe/pF-phe/acetic acid] it was 6.62.
Same read-out and setting: in the case of `CCN1C2=NC[C@H](Cc3ccccc3)N2C[C@H]1C1CCCCC1` [Phe/chg/acetic acid] it was 6.92.
Take `C1CCC(CC2CN3C(=NCC3CC3CCCCC3)N2CCC23CC4CC(CC(C4)C2)C3)CC1` (single isomer, unassigned) [L-Cha/D-cha/1-adamantaneacetic acid]: the pIC50 at calmodulin is 5.65.
Take `C1CCC(CCCN2C3=NC[C@@H](C4CCCCC4)N3C[C@@H]2C2CCCCC2)CC1` [compound 11]: on σ receptor (setting [2]), the pIC50 was 6.39.
